According to ChEMBL document CHEMBL5584231, “Rational design of a new short anticancer peptide with good potential for cancer treatment” (Eur J Med Chem, 2024):
Active and inactive are the calls of the source. The calls are words filed in the database; no cut-off is given here. Non-standard residues stand in square brackets, D forms with d. Residues, ends and D or L forms follow the SMILES beside them. Aad = N[C@@H](CCCC(=O)O)C(=O)O

Experiments:
MCF7 [1] = assay: Induction of apoptosis in human MCF7 cells assessed as late apoptotic cells at 1 times IC50 measured after 24 hrs by Annexin V-FITC staining based flow cytometry analysis (reference value: 1.60%); type: functional
MCF7 [2] = assay: Cytotoxicity against human MCF7 cells assessed as inhibition of cell growth incubated for 1 hr by MTT assay; type: functional, cell-based; conditions: MCF7, 1 h
[3] = Stability in mouse serum assessed as compound remaining at 10 mM incubated for 12 hrs by RP-HPLC analysis; type: ADME, cell-free; conditions: read-out: Stability
[4] = Acute toxicity in female Balb/c mouse assessed as necrosis in kidney at approximately LD50 administered as single ip dose by H and E staining based analysis; type: organism-based; conditions: in vivo
[5] = Toxicity in female Balb/c mouse implanted with mouse 4T1 cells assessed as pathological changes in kidney at 12 micromol/kg, ip administered every other day for 2 weeks by H and E staining based analysis; type: organism-based; conditions: in vivo, 336 h, dose 12 µmol/kg
[6] = Acute toxicity in female Balb/c mouse assessed as shrinking cytoplasm in kidney at approximately LD50 administered as single ip dose by H and E staining based analysis; type: organism-based; conditions: in vivo
MCF7 [7] = assay: Induction of apoptosis in human MCF7 cells assessed as live cells at 1 times IC50 measured after 24 hrs by Annexin V-FITC staining based flow cytometry analysis (reference value: 92%); type: functional
[8] = Toxicity in female Balb/c mouse implanted with mouse 4T1 cells assessed as pathological changes in lung at 12 micromol/kg, ip administered every other day for 2 weeks by H and E staining based analysis; type: organism-based; conditions: in vivo, 336 h, dose 12 µmol/kg
Cell membrane [9] = assay: Disruption of cell membrane integrity in human MCF7 cells assessed as increase in PI fluorescence measured after 1 hr by laser confocal scanning microscopic analysis; type: cell membranes
Cell membrane [10] = assay: Disruption of cell membrane in human MCF7 cells assessed as LDH release at 40 uM incubated for 1 hr by fluorescence based microplate reader analysis relative to control; type: cell membranes
[11] = Acute toxicity in female Balb/c mouse assessed as reduction in survival rate at 37 to 55 mg/kg, ip administered as single dose and measured for 7 days; type: organism-based; conditions: in vivo, 168 h, dose 37-55 mg/kg, time 7 day
4T1 [12] = assay: Antitumor activity against mouse 4T1 cells implanted in female Balb/c mouse assessed as increase in tumor cell necrosis at 12 micromol/kg, ip administered every other day for 2 weeks by H and E staining based analysis; type: functional, organism-based; conditions: dose 12.0 µmol/kg
[13] = Acute toxicity in ip dosed female Balb/c mouse administered as single dose and measured for 7 days by karber method; type: organism-based; conditions: in vivo, time 7 day
Cell membrane [14] = assay: Induction of morphological changes in cell membrane of human MCF7 cells assessed as severe membrane rupture at 1 times IC50 incubated for 1 hr by SEM analysis; type: cell membranes
MCF7 [15] = assay: Cytotoxicity against human MCF7 cells assessed as reduction in cell survival at 0.5 to 1 times IC50 incubated for 24 hrs in presence of 1 uM paclitaxel by MTT assay; type: functional, cell-based
[16] = Acute toxicity in female Balb/c mouse assessed as reduction in survival rate at 37 mg/kg, ip administered as single dose and measured for 7 days; type: organism-based; conditions: in vivo, 168 h, time 7 day
4T1 [17] = assay: Antitumor activity against mouse 4T1 cells implanted in female Balb/c mouse assessed as reduction in tumor growth at 12 micromol/kg, ip administered every other day for 2 weeks and measured every 2 days; type: functional, organism-based; conditions: dose 12.0 µmol/kg
Cell membrane [18] = assay: Disruption of cell membrane integrity in human MCF7 cells assessed as increase in PI fluorescence at 1 times IC50 by laser confocal scanning microscopic analysis; conditions: time 0-120 min, TDE = time-dependent effect
[19] = Acute toxicity in female Balb/c mouse assessed as reduction in survival rate at 65 mg/kg, ip administered as single dose and measured for 7 days; type: organism-based; conditions: in vivo, 168 h, time 7 day
4T1 [20] = assay: Antitumor activity against mouse 4T1 cells implanted in female Balb/c mouse assessed as increase in tumor cell lysis at 12 micromol/kg, ip administered every other day for 2 weeks by H and E staining based analysis; type: functional, organism-based; conditions: dose 12.0 µmol/kg
4T1 [21] = assay: Antitumor activity against mouse 4T1 cells implanted in female Balb/c mouse assessed as nucleus contraction at 12 micromol/kg, ip administered every other day for 2 weeks by H and E staining based analysis; type: functional, organism-based; conditions: dose 12.0 µmol/kg
[22] = Acute toxicity in female Balb/c mouse assessed as reduction in survival rate at 82 to 130 mg/kg, ip administered as single dose and measured for 7 days; type: organism-based; conditions: in vivo, 168 h, dose 82-130 mg/kg, time 7 day
[23] = Acute toxicity in female Balb/c mouse assessed as reduction in survival rate at 50 mg/kg, ip administered as single dose and measured for 7 days; type: organism-based; conditions: in vivo, 168 h, time 7 day
[24] = Acute toxicity in female Balb/c mouse assessed as reduction in survival rate at 65 to 110 mg/kg, ip administered as single dose and measured for 7 days; type: organism-based; conditions: in vivo, 168 h, dose 65-110 mg/kg, time 7 day

SMILES | Activity (MCF7 [1]) [%] | IC50 (MCF7 [2]) [µM] | remaining at 12 h, 10000 µM [3] [%] | Activity [5] | Activity (MCF7 [7]) [%] | Activity [8] | Activity (Cell membrane [9]) | Activity (Cell membrane [10]) [%] | Activity (4T1 [12]) | LD50 at 168 h [13] [mg/kg] | Activity (Cell membrane [14]) | Activity (MCF7 [15]) | Activity (4T1 [17]) | Activity (Cell membrane [18]) | also measured
CC(C)C[C@H](NC(=O)[C@H](CC(C)C)NC(=O)[C@H](CCCCN)NC(=O)[C@H](CCCCN)NC(=O)[C@H](CC(C)C)NC(=O)[C@H](CC(C)C)NC(=O)[C@H](CCCCN)NC(=O)[C@H](CCCCN)NC(=O)[C@H](CC(C)C)NC(=O)[C@H](CC(C)C)NC(=O)[C@H](CCCCN)NC(=O)[C@H](CCCCN)NC(=O)[C@H](CC(C)C)NC(=O)[C@@H](N)CC(C)C)C(N)=O (H-LLKKLLKKLLKKLL-NH2) | 19.2 | 4.76 | 45.6 | Non-Toxic | 58.1 | Non-Toxic | Dose-Dependent Effect | 82 | Active | 50.2 | Active | Active | Active | Tde | Activity [4]: Toxic; Activity [6]: Toxic; Activity [11]: Toxic; Activity [16]: Non-Toxic
CC(C)C[C@H](NC(=O)[C@H](CCCCN)NC(=O)[C@H](CCCCN)NC(=O)[C@H](CC(C)C)NC(=O)[C@H](CC(C)C)NC(=O)[C@H](CCCCN)NC(=O)[C@H](CCCCN)NC(=O)[C@H](CC(C)C)NC(=O)[C@H](CC(C)C)NC(=O)[C@H](CCCCN)NC(=O)[C@H](CCCCN)NC(=O)[C@H](CC(C)C)NC(=O)[C@@H](N)CC(C)C)C(=O)N[C@@H](CCCC(=O)O)C(N)=O (H-LLKKLLKKLLKKL[Aad]-NH2) | 13.8 | 15.7 | 31.6 | Non-Toxic | 55.9 | Non-Toxic | Dose-Dependent Effect | 82.3 | Active | 84 | Active | Active | Active | Tde | Activity [19]: Non-Toxic; Activity (4T1 [20]): Active; Activity (4T1 [21]): Active; Activity [22]: Toxic
CC(C)C[C@H](NC(=O)[C@H](CCCCN)NC(=O)[C@H](CCCCN)NC(=O)[C@H](CC(C)C)NC(=O)[C@H](CC(C)C)NC(=O)[C@H](CCCCN)NC(=O)[C@H](CCCCN)NC(=O)[C@H](CC(C)C)NC(=O)[C@H](CC(C)C)NC(=O)[C@H](CCCCN)NC(=O)[C@H](CCCCN)NC(=O)[C@H](CC(C)C)NC(=O)[C@@H](N)CC(C)C)C(=O)N[C@@H](CCC(=O)O)C(N)=O (H-LLKKLLKKLLKKLE-NH2) | 19.1 | 21.4 | 28.6 | Non-Toxic | 57.2 | Non-Toxic | Dose-Dependent Effect | 74.1 | Active | 79.9 | Active | Active | Active | Tde | Activity [23]: Non-Toxic; Activity [24]: Toxic
